Laboratory results: publication PMC10518257 (Nature Cancer, 2023)
“And” between values parts separate entries of the source, which are not always exact repeats. Identical values can stand only once. Like-named read-outs stand apart in the source and are kept apart here.

How the values were obtained:
ECLC5B cells = assay: Growth inhibition (alamarBlue, 96 h); format: cell-based, human; conditions: for raw viability signal (Source Data Fig. 3b-c): ECLC5B, replicates
Ba/F3-CCDC6::RET^S904F = assay: Growth inhibition assay in Ba/F3 cells (CellTiter-Glo, 72 h); format: cell-based
LUAD-0086AS3 cells = assay: Growth inhibition (alamarBlue, 96 h); format: cell-based, human; conditions: for raw viability signal (Source Data Fig. 3b-c): LUAD-0086AS3 (n=1, 3 replicates)
[1] = test system: Ba/F3 KIF5B–RET^WT allograft tumors; assay: Subcutaneous allograft efficacy study; format: in vivo, BALB/c nude mice
[2] = test system: HBECp53-RET cells (CCDC6-RET fusion); assay: Growth inhibition (alamarBlue, 96 h); format: cell-based, human; conditions: for raw viability signal (Source Data Fig. 3b-c): HBEC-RET, replicate sets
TT cells = assay: Growth inhibition (alamarBlue, 96 h); format: cell-based, human; conditions: for raw viability signal (Source Data Fig. 3b-c): replicate sets
LUAD-0002AS1 cells = assay: Growth inhibition (alamarBlue, 96 h); format: cell-based, human
[3] = Homo sapiens, 96 h, read-out: IC50 for Inhibition of Growth (95% CI)

COCc1ccc(NC(=O)c2c(C#CCN3CCOCC3)n(C3(C)CC3)c3ncnc(N)c23)cc1 [Vepafestinib, 4-amino-N-[4-(methoxymethyl)phenyl]-7-(1-methylcyclopropyl)-6-[3-(morpholin-4-yl)prop-1-yn-1-yl]-7H-pyrrolo[2,3-d]pyrimidine-5-carboxamide]
raw viability signal (Source Data Fig. 3b-c) (ECLC5B cells; 0.01 nM): 9826.46 and 7916.25 and 19010.8
raw viability signal (Source Data Fig. 3b-c) (ECLC5B cells; 0.1 nM): 10351 and 8612.52 and 20662.3
raw viability signal (Source Data Fig. 3b-c) (ECLC5B cells; 1 nM): 10751.4 and 8385.29 and 18478.3
raw viability signal (Source Data Fig. 3b-c) (ECLC5B cells; 10 nM): 4019.62 and 1873.82 and 8615.92
raw viability signal (Source Data Fig. 3b-c) (ECLC5B cells; 100 nM): 3307.08 and 1329.05 and 4450.27
raw viability signal (Source Data Fig. 3b-c) (ECLC5B cells; 1000 nM): 2927.89 and 1305.13 and 4874.13
raw viability signal (Source Data Fig. 3b-c) (ECLC5B cells; 10000 nM): 1756.2 and 2012.52 and 6114.45
IC50 (ECLC5B cells; [3]): 7 nM
GI50 (Ba/F3-CCDC6::RET^S904F; BaF3/CCDC6-RET, read-out: GI50 values, Ba/F3-CCDC6::RET S904F, individual sets (replicate experiments)): 28.5 nM
GI50 (Ba/F3-CCDC6::RET^S904F; Mus musculus, BaF3, 72 h, read-out: GI50 value (Mean ± SD), Ba/F3-CCDC6::RET^S904F, CellTiter-Glo, 72 h): 24.7 ± 5 nM
GI50 (Ba/F3-CCDC6::RET^S904F; read-out: GI50 values, Ba/F3-CCDC6::RET S904F, individual sets (replicate experiments)): 26.7 nM and 19.1 nM
IC50 (LUAD-0086AS3 cells; [3]): 116 nM
raw viability signal (Source Data Fig. 3b-c) (LUAD-0086AS3 cells; 0.01 nM): 16237.2 and 19485.2 and 18210.6
raw viability signal (Source Data Fig. 3b-c) (LUAD-0086AS3 cells; 0.1 nM): 16457.6 and 20449.8 and 20222
raw viability signal (Source Data Fig. 3b-c) (LUAD-0086AS3 cells; 1 nM): 16743.2 and 19056.2 and 19367.3
raw viability signal (Source Data Fig. 3b-c) (LUAD-0086AS3 cells; 10 nM): 12680.1 and 18071 and 16933
raw viability signal (Source Data Fig. 3b-c) (LUAD-0086AS3 cells; 100 nM): 5830.14 and 9884.36 and 9286.4
raw viability signal (Source Data Fig. 3b-c) (LUAD-0086AS3 cells; 1000 nM): 6803.13 and 8603.1 and 8594.97
raw viability signal (Source Data Fig. 3b-c) (LUAD-0086AS3 cells; 10000 nM): 3602.32 and 4605.44 and 4993.57
Tumor Volume Mean ([1]; Ba/F3-KIF5B::RET, 50 mg/kg BID, Day 1, Ext. Data Fig. 9a): 153.20 mm3
Tumor Volume Mean ([1]; Ba/F3-KIF5B::RET, 50 mg/kg BID, Day 1, Ext. Data Fig. 9b): 219.73 mm3
Tumor Volume Mean ([1]; Ba/F3-KIF5B::RET, 50 mg/kg BID, Day 4, Ext. Data Fig. 9a): 87.32 mm3
Tumor Volume Mean ([1]; Ba/F3-KIF5B::RET, 50 mg/kg BID, Day 4, Ext. Data Fig. 9b): 116.10 mm3
Tumor Volume Mean ([1]; Ba/F3-KIF5B::RET, 50 mg/kg BID, Day 8, Ext. Data Fig. 9a): 98.53 mm3
Tumor Volume Mean ([1]; Ba/F3-KIF5B::RET, 50 mg/kg BID, Day 8, Ext. Data Fig. 9b): 190.23 mm3
Tumor Volume Mean ([1]; Ba/F3-KIF5B::RET, 50 mg/kg BID, Day 11, Ext. Data Fig. 9a): 80.59 mm3
Tumor Volume Mean ([1]; Ba/F3-KIF5B::RET, 50 mg/kg BID, Day 11, Ext. Data Fig. 9b): 68.61 mm3
Tumor Volume Mean ([1]; Ba/F3-KIF5B::RET, 50 mg/kg BID, Day 15, Ext. Data Fig. 9a): 80.54 mm3
Tumor Volume Mean ([1]; Ba/F3-KIF5B::RET, 50 mg/kg BID, Day 15, Ext. Data Fig. 9b): 131.30 mm3
Tumor Volume Mean ([1]; Fig. 7a Ba/F3-KIF5B::RET, 25 mg/kg BID, day 0, in mm³ (unit assumed)): 186.18
Tumor Volume Mean ([1]; Fig. 7a Ba/F3-KIF5B::RET, 25 mg/kg BID, day 4, in mm³ (unit assumed)): 191.92
Tumor Volume Mean ([1]; Fig. 7a Ba/F3-KIF5B::RET, 25 mg/kg BID, day 8, in mm³ (unit assumed)): 184.92
Tumor Volume Mean ([1]; Fig. 7a Ba/F3-KIF5B::RET, 25 mg/kg BID, day 11, in mm³ (unit assumed)): 174.38
Tumor Volume Mean ([1]; Fig. 7a Ba/F3-KIF5B::RET, 25 mg/kg BID, day 15, in mm³ (unit assumed)): 165.09
Tumor Volume Mean ([1]; Fig. 7a Ba/F3-KIF5B::RET, 50 mg/kg BID, day 0, in mm³ (unit assumed)): 187.80
Tumor Volume Mean ([1]; Fig. 7a Ba/F3-KIF5B::RET, 50 mg/kg BID, day 4, in mm³ (unit assumed)): 184.99
Tumor Volume Mean ([1]; Fig. 7a Ba/F3-KIF5B::RET, 50 mg/kg BID, day 8, in mm³ (unit assumed)): 148.12
Tumor Volume Mean ([1]; Fig. 7a Ba/F3-KIF5B::RET, 50 mg/kg BID, day 11, in mm³ (unit assumed)): 106.67
Tumor Volume Mean ([1]; Fig. 7a Ba/F3-KIF5B::RET, 50 mg/kg BID, day 15, in mm³ (unit assumed)): 83.29
raw viability signal (Source Data Fig. 3b-c) ([2]; 0.01 nM): 18957.1 and 8244.84 and 10678.9 and 16541.7
raw viability signal (Source Data Fig. 3b-c) ([2]; 0.1 nM): 17482 and 10966 and 10873.4 and 16651.3
raw viability signal (Source Data Fig. 3b-c) ([2]; 1 nM): 17298.8 and 10767.5 and 11130.6 and 16468.7
raw viability signal (Source Data Fig. 3b-c) ([2]; 10 nM): 5536.96 and 10230.4 and 9156.41 and 16208.5
raw viability signal (Source Data Fig. 3b-c) ([2]; 100 nM): 4544.29 and 6087.71 and 3084.29 and 6640.5
raw viability signal (Source Data Fig. 3b-c) ([2]; 1000 nM): 2966.02 and 1973.98 and 3130.94 and 5863.55
raw viability signal (Source Data Fig. 3b-c) ([2]; 10000 nM): 3124.48 and 1006.63 and 1869.57 and 4627.96
IC50 ([2]; Homo sapiens, 96 h, read-out: IC50 for Inhibition of Growth (95% CI), HBECp53-RET, alamarBlue, 96 h): 65 nM
raw viability signal (Source Data Fig. 3b-c) (TT cells; 0.01 nM): 22992.9 and 26706 and 26833.9 and 13728.7 and 29403.6
raw viability signal (Source Data Fig. 3b-c) (TT cells; 0.1 nM): 22728 and 26400.4 and 33154.7 and 10987.6 and 26655.8
raw viability signal (Source Data Fig. 3b-c) (TT cells; 1 nM): 22046.8 and 26424.3 and 31146.9 and 10280.3 and 23063
raw viability signal (Source Data Fig. 3b-c) (TT cells; 10 nM): 18366.2 and 23539.3 and 23168.9 and 8667.42 and 19947.5
raw viability signal (Source Data Fig. 3b-c) (TT cells; 100 nM): 10434.7 and 14002.8 and 12336.3 and 4688.9 and 15375.8
raw viability signal (Source Data Fig. 3b-c) (TT cells; 1000 nM): 10759 and 11509.2 and 9437.03 and 4745.5 and 14900.8
raw viability signal (Source Data Fig. 3b-c) (TT cells; 10000 nM): 11538.8 and 12388.7 and 14343.9 and 2691.86 and 17063
IC50 (TT cells; [3]): 24 nM
IC50 (LUAD-0002AS1 cells; [3]): 6 nM
raw viability signal (Source Data Fig. 3b-c) (LUAD-0002AS1 cells; LUAD-0002AS1, 0.01 nM, replicate sets): 16782.2 and 12668.5 and 13089
